Values joined by “and” are separate entries in the source; they are usually repeats but may differ in a detail not shown here. Identical values can stand only once.
Tests used:
Experiment in all cases: normalised viability (% of control), CellTiter-Blue; higher = more viable cells (about 100 = DMSO control)
Conditions in all cases: incubation time: 72 h
BT-474 = test system: BT-474
Experimental: (§1)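 DSRT, CellTiter-Blue viability, 72 h incubation. Signal is normalised to DMSO and benzethonium chloride controls. Value is the normalised response at dose 3.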

BT-549 [1] = test system: BT-549
Experimental: as §1

CAL-120 [2] = test system: CAL-120
Experimental: as §1

CAL-148 [3] = test system: CAL-148
Experimental: as §1

CAL-51 = test system: CAL-51
Experimental: as §1

CAL-85-1 [4] = test system: CAL-85-1
Experimental: as §1

DU-4475 = test system: DU-4475
Experimental: as §1

HCC1143 = test system: HCC1143
Experimental: as §1

HCC1599 = test system: HCC1599
Experimental: as §1

HCC1937 = test system: HCC1937
Experimental: as §1

HDQ-P1 = test system: HDQ-P1
Experimental: as §1

Hs578T [5] = test system: Hs578T
Experimental: as §1

MDA-MB-231 = test system: MDA-MB-231
Experimental: as §1

MDA-MB-436 [6] = test system: MDA-MB-436
Experimental: as §1

MDA-MB-453 [7] = test system: MDA-MB-453
Experimental: as §1

MDA-MB-468 = test system: MDA-MB-468
Experimental: as §1

MFM-223 [8] = test system: MFM-223
Experimental: as §1

SK-BR-3 [9] = test system: SK-BR-3
Experimental: as §1

BT-549 [10] = test system: BT-549; remark: listed apart in the source
Outline: (§2)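 Compound dissolved in 5 µl medium was pre-loaded into 384-well plates, and breast cancer cell lines in 20 µl suspension were seeded on top and incubated 72 h. After adding 2.5 µl CellTiter-Blue reagent for 2 h at 37 °C, fluorescence was read at 560/590 nm. Plates were normalised to vehicle (100) and a positive kill control (0), with Z'-factor quality control. Each value is normalised viability at a single listed concentration from the series.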

CAL-120 [11] = test system: CAL-120; remark: listed apart in the source
Outline: as §2

CAL-148 [12] = test system: CAL-148; remark: listed apart in the source
Outline: as §2

CAL-85-1 [13] = test system: CAL-85-1; remark: listed apart in the source
Outline: as §2

Hs578T [14] = test system: Hs578T; remark: listed apart in the source
Outline: as §2

MDA-MB-436 [15] = test system: MDA-MB-436; remark: listed apart in the source
Outline: as §2

MDA-MB-453 [16] = test system: MDA-MB-453; remark: listed apart in the source
Outline: as §2

MFM-223 [17] = test system: MFM-223; remark: listed apart in the source
Outline: as §2

SK-BR-3 [18] = test system: SK-BR-3; remark: listed apart in the source
Outline: as §2

CC(C)(C)NC(=O)[C@H]1CC[C@H]2[C@@H]3CC[C@H]4NC(=O)C=C[C@]4(C)[C@H]3CC[C@]12C [Finasteride]
Conditions	normalised viability [%]
BT-474, 100 nM	125
BT-549 [1], 100 nM	107
BT-549 [10], 10 nM	89.8
BT-549 [10], 1000 nM	99
BT-549 [10], 10000 nM	98.5
CAL-51, 10 nM	109
CAL-85-1 [4], 10 nM	97
CAL-85-1 [13], 3 nM	100
CAL-85-1 [13], 30 nM	91.7
CAL-85-1 [13], 100 nM	100
CAL-120 [2], 100 nM	108
CAL-120 [11], 10 nM	108
CAL-120 [11], 1000 nM	108
CAL-120 [11], 10000 nM	116
CAL-148 [3], 10 nM	93.2
CAL-148 [12], 3 nM	95.1
CAL-148 [12], 30 nM	96.8
CAL-148 [12], 100 nM	102
DU-4475, 10 nM	107
HCC1143, 100 nM	107
HCC1599, 100 nM	106
HCC1937, 100 nM	91
HDQ-P1, 10 nM	106
Hs578T [5], 100 nM	105
Hs578T [14], 10 nM	64.2
Hs578T [14], 1000 nM	108
Hs578T [14], 10000 nM	117
MDA-MB-231, 100 nM	94.2
MDA-MB-436 [6], 100 nM	110
MDA-MB-436 [15], 10 nM	91
MDA-MB-436 [15], 1000 nM	97.8
MDA-MB-436 [15], 10000 nM	96.3
MDA-MB-453 [7], 10 nM	103
MDA-MB-453 [16], 3 nM	117
MDA-MB-453 [16], 30 nM	98.2
MDA-MB-453 [16], 100 nM	112
MDA-MB-468, 100 nM	103
MFM-223 [8], 100 nM	95.1
MFM-223 [17], 10 nM	106
MFM-223 [17], 1000 nM	97.7
MFM-223 [17], 10000 nM	41.8
SK-BR-3 [9], 100 nM	104
SK-BR-3 [18], 10 nM	110
SK-BR-3 [18], 1000 nM	107
SK-BR-3 [18], 10000 nM	102

O=C(CCCCCCC(=O)Nc1ccccc1)NO [Vorinostat]
Conditions	normalised viability
BT-474, 100 nM	87.5% and 93.6%
BT-549 [1], 100 nM	106% and 90%
BT-549 [10], 10 nM	108% and 102%
BT-549 [10], 1000 nM	89.2% and 82.3%
BT-549 [10], 10000 nM	48% and 33.2%
CAL-51, 10 nM	107% and 93.5%
CAL-85-1 [4], 10 nM	109% and 96.3%
CAL-85-1 [13], 3 nM	91% and 103%
CAL-85-1 [13], 30 nM	85.7% and 96.9%
CAL-85-1 [13], 100 nM	100% and 106%
CAL-120 [2], 100 nM	79.2% and 93.3%
CAL-120 [11], 10 nM	92.3% and 99.7%
CAL-120 [11], 1000 nM	65.1% and 68.3%
CAL-120 [11], 10000 nM	11.5% and 18.7%
CAL-148 [3], 10 nM	88.3% and 92.3%
CAL-148 [12], 3 nM	78% and 95.3%
CAL-148 [12], 30 nM	90.2% and 100%
DU-4475, 10 nM	109%
HCC1143, 100 nM	94.1% and 114%
HCC1599, 100 nM	101% and 111%
HCC1937, 100 nM	98.6% and 84.2%
HDQ-P1, 10 nM	113% and 89.2%
Hs578T [5], 100 nM	74.4% and 83.6%
Hs578T [14], 10 nM	111% and 118%
Hs578T [14], 1000 nM	88.4% and 87%
Hs578T [14], 10000 nM	12.3% and 11.5%
MDA-MB-231, 100 nM	97.9% and 86.1%
MDA-MB-436 [6], 100 nM	107% and 95.4%
MDA-MB-436 [15], 10 nM	105% and 104%
MDA-MB-436 [15], 10000 nM	41.3% and 40.6%
MDA-MB-453 [7], 10 nM	115% and 97.7%
MDA-MB-453 [16], 3 nM	107% and 96.8%
MDA-MB-468, 100 nM	104% and 97.3%
MFM-223 [8], 100 nM	103% and 97.1%
MFM-223 [17], 10 nM	97.4% and 103%
MFM-223 [17], 1000 nM	84% and 74%
MFM-223 [17], 10000 nM	19.7% and 18.4%
SK-BR-3 [9], 100 nM	59.4% and 81.4%
SK-BR-3 [18], 10 nM	104% and 95.2%
SK-BR-3 [18], 1000 nM	54.3% and 45.8%
SK-BR-3 [18], 10000 nM	3.79% and 4.28%

CCNC(=O)CCC/C=C\C[C@@H]1[C@@H](/C=C/[C@@H](O)CCc2ccccc2)[C@H](O)C[C@@H]1O [Bimatoprost]
Conditions	normalised viability [%]
BT-474, 55 nM	126
BT-549 [1], 55 nM	98.7
BT-549 [10], 5.5 nM	102
BT-549 [10], 550 nM	109
BT-549 [10], 5500 nM	85.5
CAL-51, 5.5 nM	113
CAL-85-1 [4], 5.5 nM	104
CAL-85-1 [13], 1.65 nM	97.1
CAL-85-1 [13], 16.5 nM	92.5
CAL-85-1 [13], 55 nM	101
CAL-120 [2], 55 nM	95.4
CAL-120 [11], 5.5 nM	95.3
CAL-120 [11], 550 nM	92.4
CAL-120 [11], 5500 nM	94
CAL-148 [3], 5.5 nM	90.1
CAL-148 [12], 1.65 nM	92.6
CAL-148 [12], 16.5 nM	90.9
CAL-148 [12], 55 nM	95.2
DU-4475, 5.5 nM	120
HCC1143, 55 nM	100
HCC1599, 55 nM	123
HCC1937, 55 nM	102
HDQ-P1, 5.5 nM	99.7
Hs578T [5], 55 nM	80.7
Hs578T [14], 5.5 nM	110
Hs578T [14], 550 nM	116
Hs578T [14], 5500 nM	98.1
MDA-MB-231, 55 nM	96.8
MDA-MB-436 [6], 55 nM	115
MDA-MB-436 [15], 5.5 nM	111
MDA-MB-436 [15], 550 nM	111
MDA-MB-436 [15], 5500 nM	103
MDA-MB-453 [7], 5.5 nM	105
MDA-MB-453 [16], 1.65 nM	116
MDA-MB-453 [16], 16.5 nM	91.7
MDA-MB-453 [16], 55 nM	92.5
MDA-MB-468, 55 nM	106
MFM-223 [8], 55 nM	108
MFM-223 [17], 5.5 nM	112
MFM-223 [17], 550 nM	104
MFM-223 [17], 5500 nM	96.7
SK-BR-3 [9], 55 nM	82.1
SK-BR-3 [18], 5.5 nM	98.7
SK-BR-3 [18], 550 nM	110
SK-BR-3 [18], 5500 nM	97

Reference: the supplement of paper PMC4862054
